What all share (assay type): cell-based, human
The test system of one experiment is VCaP cells. Description: Anti-proliferative toxicity against prostate cancer cell line Vcap (CCK8). The settings on record: Homo sapiens, 72 h, 3 days, CCK8. As to the method:
(§1) Example 82: Detection of Anti-Proliferative Toxicity Against Prostate Cancer Cell Lines Vcap, 22Rv1, and PC-3
(§2) Vcap cells (purchased from the Cell Bank of the Chinese Academy of Sciences, Cat. No. SCSP-5034) were subcultured in a culture medium (DMEM medium+1% penicillin-streptomycin dual-antibiotic solution+10% fetal bovine serum) in an incubator at 5% carbon dioxide and 37° C. 22Rv1 cells (purchased from the Cell Bank of the Chinese Academy of Sciences, Cat. No. TCHu100) were subcultured in a culture medium (RPMI-1640 medium+1% penicillin-streptomycin dual-antibiotic solution+10% fetal bovine serum) in an incubator at 5% carbon dioxide and 37° C.
VCap cells were seeded at 20000 cells/well (90 μL) on a 96-well plate and cultured for 72 h. The original medium was removed, and a new medium of 90 μL was added.
(§3) 10 mM compound stock solutions were prepared in DMSO.
For VCap cells, the compound stock solution was diluted with DMSO to give DMSO solutions 1-10 at concentrations of 0 μM, 80 μM, 16 μM, 3.2 μM, 1.5 μM, 0.5 μM, 0.15 μM, 0.05 μM, 0.025 μM, and 0.0005 μM.
For Vcap cells, 2 μL of each of the above solutions 1-10 was added to 98 μL of Vcap medium to give mixed solutions 20-29 of the compound and the medium.
For Vcap cells, 10 μL of each of the above solutions 20-29 was added to the above cell seed solution to give a total volume of 100 μL (90 μL+10 μL), where the concentrations of the compound in wells were 0 μM, 0.16 μM, 0.032 μM, 0.006 μM, 0.003 μM, 0.001 μM, 0.0003 μM, 0.0001 μM, 0.00005 μM, and 0.00001 μM. All concentrations were in triplicate.
(§4) After the above-treated cells were cultured for 3 days, 10 μL of the CCK8 solution (DOJINDO, Cat. No. PF725) was added to each well. The plate was incubated in an incubator at 37° C. for 1-4 h and then detected on a microplate reader for the reading at 450 nm.

For a further experiment, the system named is PC-3 cells. In words: Anti-proliferative toxicity against prostate cancer cell line PC-3 (CCK8). The settings on record: Homo sapiens, 72 h, 3 days. As to the method: as §1
PC-3 cells (purchased from the Cell Bank of the Chinese Academy of Sciences, Cat. No. SCSP-532) were subcultured in a culture medium (F12K medium+1% penicillin-streptomycin dual-antibiotic solution+10% fetal bovine serum) in an incubator at 5% carbon dioxide and 37° C.
PC-3 cells were seeded at 4000 cells/well (90 μL) on a 96-well plate and cultured for 24 h.
as §3
(§5) For 22Rv1 cells and PC-3 cells, the compound stock solution was diluted with DMSO to give DMSO solutions 11-19 at concentrations of 0 μM, 500 μM, 100 μM, 20 μM, 4 μM, 0.8 μM, 0.16 μM, 0.032 μM, 0.0064 μM.
For PC-3 cells, 2 μL of each of the above solutions 11-19 was added to 98 μL of PC-3 medium to give mixed solutions 39-47 of the compound and the medium.
(§6) For 22Rv1 and PC-3 cells, 10 μL of each of the above solutions 30-38 or 39-47 was added to the above cell seed solution to give a total volume of 100 μL (90 μL+10 μL), where the concentrations of the compound in wells were 0 μM, 1.0 μM, 0.2 μM, 0.04 μM, 0.008 μM, 0.0016 μM, 0.00032 μM, 0.00006 μM, and 0.00001 μM. All concentrations were in triplicate.
as §4

The next experiment relates to 22Rv1 cells. In words: Anti-proliferative toxicity against prostate cancer cell line 22Rv1 (CCK8). The settings on record: Homo sapiens, 72 h, 3 days, CCK8. As to the method:
as §1, §2
22Rv1 cells were seeded at 5000 cells/well (90 μL) on a 96-well plate and cultured for 48 h.
as §3, §5
For 22Rv1 cells, 2 μL of each of the above solutions 11-19 was added to 98 μL of 22Rv1 medium to give mixed solutions 30-38 of the compound and the medium.
as §6, §4

By IC50 is commonly meant the midpoint of a concentration-inhibition curve. Higher therefore signals a need for much substance.

Consider `C[C@]12C=CC(=O)N[C@@H]1CC[C@@H]1[C@@H]2CC[C@]2(C)[C@@H](C(=O)Nc3ccc(OCCNc4ccc5c(c4)C(=O)N(C4CCC(=O)NC4=O)C5=O)cc3)CC[C@@H]12` (stereo partly drawn) [C16, N-(4-((2-((5-(2-(3-(2,6-dioxopiperidine))-isoindole-1,3-dione))amino)ethyl)oxy)phenyl)-3-oxo-4-aza-5α-androst-1-ene-17β-carboxamide], for which the IC50 in the experiment with VCaP cells, in the experiment on PC-3 cells and in the experiment on 22Rv1 cells was > 1 µM throughout.
On to `C[C@]12C=CC(=O)N[C@@H]1CC[C@@H]1[C@@H]2CC[C@]2(C)[C@@H](C(=O)Nc3ccc(OCCCNc4cccc5c4C(=O)N(C4CCC(=O)NC4=O)C5=O)cc3)CC[C@@H]12` (stereo partly drawn) [C17, N-(4-((3-((4-(2-(3-(2,6-dioxopiperidine))-isoindole-1,3-dione))amino)propyl)oxy)phenyl)-3-oxo-4-aza-5α-androst-1-ene-17β-carboxamide], for which the half-inhibitory concentration (IC50) with VCaP cells, in the experiment with PC-3 cells and in the experiment with 22Rv1 cells was > 1 µM throughout.
Consider `C[C@]12C=CC(=O)N[C@@H]1CC[C@@H]1[C@@H]2CC[C@]2(C)[C@@H](C(=O)Nc3ccc(OCCCNc4ccc5c(c4)C(=O)N(C4CCC(=O)NC4=O)C5=O)cc3)CC[C@@H]12` (stereo partly drawn) [C18, N-(4-((3-((5-(2-(3-(2,6-dioxopiperidine))-isoindole-1,3-dione))amino)propyl)oxy)phenyl)-3-oxo-4-aza-5α-androst-1-ene-17β-carboxamide], for which the 50% inhibitory concentration (IC50) with VCaP cells, in the experiment on PC-3 cells and with 22Rv1 cells was > 1 µM in each case.
As for `C[C@]12C=CC(=O)N[C@@H]1CC[C@@H]1[C@@H]2CC[C@]2(C)[C@@H](C(=O)Nc3ccc(OCCCCCNc4cccc5c4C(=O)N(C4CCC(=O)NC4=O)C5=O)cc3)CC[C@@H]12` (stereo partly drawn) [C19, N-(4-((5-((4-(2-(3-(2,6-dioxopiperidine))-isoindole-1,3-dione))amino)pentyl)oxy)phenyl)-3-oxo-4-aza-5α-androst-1-ene-17β-carboxamide], the IC50 with VCaP cells, with PC-3 cells and in the experiment on 22Rv1 cells was > 1 µM each time.
Consider `C[C@]12C=CC(=O)N[C@@H]1CC[C@@H]1[C@@H]2CC[C@]2(C)[C@@H](C(=O)Nc3ccc(OCCCCCNc4ccc5c(c4)C(=O)N(C4CCC(=O)NC4=O)C5=O)cc3)CC[C@@H]12` (stereo partly drawn) [C20, N-(4-((5-((5-(2-(3-(2,6-dioxopiperidine))-isoindole-1,3-dione))amino)pentyl)oxy)phenyl)-3-oxo-4-aza-5α-androst-1-ene-17β-carboxamide], for which the IC50 with VCaP cells, in the experiment on PC-3 cells and with 22Rv1 cells was > 1 µM in each case.
Take `C[C@]12C=CC(=O)N[C@@H]1CC[C@@H]1[C@@H]2CC[C@]2(C)[C@@H](C(=O)Nc3ccc(OCCCCCCNc4cccc5c4C(=O)N(C4CCC(=O)NC4=O)C5=O)cc3)CC[C@@H]12` (stereo partly drawn) [C21, N-(4-((6-((4-(2-(3-(2,6-dioxopiperidine))-isoindole-1,3-dione))amino)hexyl)oxy)phenyl)-3-oxo-4-aza-5α-androst-1-ene-17β-carboxamide]: the IC50 in the experiment with VCaP cells, in the experiment on PC-3 cells and with 22Rv1 cells was > 1 µM throughout.
As to `C[C@]12C=CC(=O)N[C@@H]1CC[C@@H]1[C@@H]2CC[C@]2(C)[C@@H](C(=O)Nc3ccc(OCCCCCCNc4ccc5c(c4)C(=O)N(C4CCC(=O)NC4=O)C5=O)cc3)CC[C@@H]12` (stereo partly drawn) [C22, N-(4-((6-((5-(2-(3-(2,6-dioxopiperidine))-isoindole-1,3-dione))amino)hexyl)oxy)phenyl)-3-oxo-4-aza-5α-androst-1-ene-17β-carboxamide], the IC50 in the experiment on VCaP cells, in the experiment with PC-3 cells and with 22Rv1 cells was > 1 µM in each case.
As to `C[C@]12C=CC(=O)N[C@@H]1CC[C@@H]1[C@@H]2CC[C@]2(C)[C@@H](C(=O)Nc3ccc(OCCCCCCCNc4cccc5c4C(=O)N(C4CCC(=O)NC4=O)C5=O)cc3)CC[C@@H]12` (stereo partly drawn) [C23, N-(4-((7-((4-(2-(3-(2,6-dioxopiperidine))-isoindole-1,3-dione))amino)heptyl)oxy)phenyl)-3-oxo-4-aza-5α-androst-1-ene-17β-carboxamide], the IC50 in the experiment with VCaP cells, with PC-3 cells and in the experiment on 22Rv1 cells was > 1 µM throughout.
With `C[C@]12C=CC(=O)N[C@@H]1CC[C@@H]1[C@@H]2CC[C@]2(C)[C@@H](C(=O)Nc3ccc(OCCCCCCCNc4ccc5c(c4)C(=O)N(C4CCC(=O)NC4=O)C5=O)cc3)CC[C@@H]12` (stereo partly drawn) [C24, N-(4-((7-((5-(2-(3-(2,6-dioxopiperidine))-isoindole-1,3-dione))amino)heptyl)oxy)phenyl)-3-oxo-4-aza-5α-androst-1-ene-17β-carboxamide], the IC50 in the experiment on VCaP cells, with PC-3 cells and with 22Rv1 cells was > 1 µM in each case.
Regarding `C[C@]12C=CC(=O)N[C@@H]1CC[C@@H]1[C@@H]2CC[C@]2(C)[C@@H](C(=O)Nc3ccc(OCCCCCCCCNc4cccc5c4C(=O)N(C4CCC(=O)NC4=O)C5=O)cc3)CC[C@@H]12` (stereo partly drawn) [C25, N-(4-((8-((4-(2-(3-(2,6-dioxopiperidine))-isoindole-1,3-dione))amino)octyl)oxy)phenyl)-3-oxo-4-aza-5α-androst-1-ene-17β-carboxamide], the IC50 in the experiment on VCaP cells, in the experiment on PC-3 cells and with 22Rv1 cells was > 1 µM in each case.
`C[C@]12C=CC(=O)N[C@@H]1CC[C@@H]1[C@@H]2CC[C@]2(C)[C@@H](C(=O)Nc3ccc(OCCCCCCCCNc4ccc5c(c4)C(=O)N(C4CCC(=O)NC4=O)C5=O)cc3)CC[C@@H]12` (stereo partly drawn) [C26, N-(4-((8-((5-(2-(3-(2,6-dioxopiperidine))-isoindole-1,3-dione))amino)octyl)oxy)phenyl)-3-oxo-4-aza-5α-androst-1-ene-17β-carboxamide]: the IC50 is 0.0001 to 0.01 µM in the experiment on VCaP cells, > 1 µM in the experiment with PC-3 cells and 0.01 to 1 µM in the experiment with 22Rv1 cells.
On to `C[C@]12C=CC(=O)N[C@@H]1CC[C@@H]1[C@@H]2CC[C@]2(C)[C@@H](C(=O)Nc3cccc(OCCNc4cccc5c4C(=O)N(C4CCC(=O)NC4=O)C5=O)c3)CC[C@@H]12` (stereo partly drawn) [C27, N-(3-((2-((4-(2-(3-(2,6-dioxopiperidine))-isoindole-1,3-dione))amino)ethyl)oxy)phenyl)-3-oxo-4-aza-5α-androst-1-ene-17β-carboxamide], for which the IC50 is 0.01 to 1 µM with VCaP cells, > 1 µM with PC-3 cells and > 1 µM in the experiment with 22Rv1 cells.
Consider `C[C@]12C=CC(=O)N[C@@H]1CC[C@@H]1[C@@H]2CC[C@]2(C)[C@@H](C(=O)Nc3cccc(OCCNc4ccc5c(c4)C(=O)N(C4CCC(=O)NC4=O)C5=O)c3)CC[C@@H]12` (stereo partly drawn) [C28, N-(3-((2-((5-(2-(3-(2,6-dioxopiperidine))-isoindole-1,3-dione))amino)ethyl)oxy)phenyl)-3-oxo-4-aza-5α-androst-1-ene-17β-carboxamide], for which the IC50 with VCaP cells, in the experiment with PC-3 cells and with 22Rv1 cells was > 1 µM in each case.
